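Assay format: 96-well plates, 48-hour exposure. GI50 marks 50% less growth. TGI: total growth inhibition.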 *1 amine or outer side, *2 acyl side, *3 side chain or, on linkers, in order; H or OH if unused. Where a SMILES comes first, the peptide text is derived from it. Bridges are numbered along the chain shown (N, C = ends). [ ]: non-standard residue; d: D form. X35 = CC[C@H](C)[C@@H](N[*:1])[C@@H](O)CC(=O)O[C@H](C(=O)[C@H](C)C(=O)[*:2])C(C)C; NMeY = CN[C@@H](Cc1ccc(O)cc1)C(=O)O
What was measured:
Experiment in all cases: growth of human tumour cells (NCI), 48 h
[1] = tested on: SK-MEL-28 melanoma
[2] = tested on: A498 renal
[3] = tested on: SF-539 CNS
[4] = tested on: UACC-257 melanoma
[5] = tested on: COLO 205 colon
[6] = tested on: HT29 colon
[7] = tested on: NCI/ADR-RES ovarian
[8] = tested on: MDA-MB-435
[9] = tested on: OVCAR-3 ovarian
[10] = tested on: MDA-MB-231 breast
[11] = tested on: DU-145 prostate
[12] = tested on: OVCAR-4 ovarian
[13] = tested on: SF-295 CNS
[14] = tested on: HL-60(TB) leukemia
[15] = tested on: A549 NSCLC
[16] = tested on: SK-OV-3 ovarian
[17] = tested on: NCI-H226 lung
[18] = tested on: LOX IMVI melanoma
[19] = tested on: ACHN renal
[20] = tested on: K-562 leukemia
[21] = tested on: SN12C renal
[22] = tested on: UACC-62 melanoma
[23] = tested on: OVCAR-8 ovarian
[24] = tested on: SK-MEL-2 melanoma
[25] = tested on: MOLT-4 leukemia
[26] = tested on: NCI-H522 lung
[27] = tested on: RPMI-8226 leukemia
[28] = tested on: BT-549 breast
[29] = tested on: SF-268 CNS
[30] = tested on: UO-31 renal
[31] = tested on: HCT-15 colon
[32] = tested on: M14 melanoma
[33] = tested on: OVCAR-5 ovarian
[34] = tested on: NCI-H460 lung
[35] = tested on: SW-620 colon
[36] = tested on: 786-0 renal
[37] = tested on: NCI-H23 lung
[38] = tested on: HS 578T breast
[39] = tested on: HOP-62 NSCLC
[40] = tested on: TK-10 renal
[41] = tested on: IGROV1 ovarian
[42] = tested on: SR leukemia
[43] = tested on: CCRF-CEM leukemia
[44] = tested on: SK-MEL-5 melanoma
[45] = tested on: SNB-75 CNS
[46] = tested on: RXF 393 renal
[47] = tested on: MCF7 breast
[48] = tested on: PC-3 prostate
[49] = tested on: HCC-2998 colon
[50] = tested on: EKVX NSCLC
[51] = tested on: U251 CNS
[52] = tested on: SNB-19 CNS
[53] = tested on: MALME-3M melanoma
[54] = tested on: KM12 colon
[55] = tested on: HCT-116 colon
[56] = tested on: HOP-92 NSCLC
[57] = tested on: T-47D breast
[58] = tested on: CAKI-1 renal

Molecule `Cc1cc(CCC(=O)NCCNc2c3ccccc3nc3ccccc23)cc(C)c1O[Si](C)(C)C(C)(C)C` has a TGI [1] of 3.37 µM, a TGI [2] of 2.02 µM and a TGI [3] of 0.377 µM. The TGI [4] was 3.51 µM, the TGI [5] was 2.23 µM and the TGI [6] was 1.71 µM. It also gave a TGI [7] of 4.44 µM, a TGI [8] of 1.04 µM and a TGI [9] of 3.57 µM. The TGI [10] was 25.8 µM, the TGI [11] was 2.63 µM and the TGI [12] was 2.67 µM. The TGI [13] was 2.27 µM, the TGI [14] was 3.16 µM and the TGI [15] was 1.99 µM. The TGI [16] was 3.01 µM, the TGI [17] was 33.4 µM and the TGI [18] was 0.29 µM. The TGI [19] was 3.05 µM, the TGI [20] was 0.826 µM and the TGI [21] was 28.8 µM. For the same molecule, the TGI [22] was 27.6 µM.

For `CC[C@H](C)[C@H]1NC(=O)[C@@H](N)[C@@H](C)OC(=O)[C@H](Cc2ccc(OC)cc2)N(C)C(=O)[C@@H]2CCCN2C(=O)[C@H](CC(C)C)NC(=O)[C@@H](C)C(=O)[C@H](C(C)C)OC(=O)C[C@@H]1O` (H-T[X35]LP[NMeY](Me); ester 1-C), the TGI [23] was > 100 µM, the TGI [1] was > 100 µM and the TGI [24] was > 100 µM. For the same molecule, the TGI [25] was > 100 µM, the TGI [26] was 25.1 µM and the TGI [27] was > 100 µM. For the same molecule, the TGI [28] was 45.9 µM, the TGI [29] was > 100 µM and the TGI [3] was 66.2 µM. For the same molecule, the TGI [30] was 68.7 µM, the TGI [4] was > 100 µM and the TGI [31] was > 100 µM. For the same molecule, the TGI [32] was 32.3 µM, the TGI [33] was > 100 µM and the TGI [34] was > 100 µM. The TGI [6] was 38.8 µM, the TGI [35] was 50.1 µM and the TGI [36] was > 100 µM. For the same molecule, the TGI [37] was > 100 µM, the TGI [7] was > 100 µM and the TGI [38] was > 100 µM. For the same molecule, the TGI [8] was 56.1 µM, the TGI [9] was > 100 µM and the TGI [39] was > 100 µM. The TGI [40] was > 100 µM, the TGI [12] was > 100 µM and the TGI [13] was > 100 µM. The TGI [14] was > 100 µM, the TGI [15] was > 100 µM and the TGI [41] was > 100 µM. For the same molecule, the TGI [16] was > 100 µM, the TGI [42] was > 100 µM and the TGI [43] was > 100 µM. The TGI [44] was 54.9 µM, the TGI [45] was > 100 µM and the TGI [46] was > 100 µM. For the same molecule, the TGI [17] was > 100 µM, the TGI [47] was > 100 µM and the TGI [48] was > 100 µM. The TGI [18] was > 100 µM, the TGI [49] was > 100 µM and the TGI [19] was > 100 µM. The TGI [20] was > 100 µM, the TGI [50] was > 100 µM and the TGI [21] was > 100 µM. The TGI [51] was > 100 µM, the TGI [52] was > 100 µM and the TGI [53] was > 100 µM. For the same molecule, the TGI [22] was 92.3 µM and the TGI [54] was 68.1 µM.

With `CCn1cc(CNc2ccc(C(=O)Nc3cc4cc(OC)c(OC)cc4c(C)n3)cc2)c(C)n1` the GI50 [2] was 4.29 µM, the TGI [2] was > 100 µM and the GI50 [29] was 33.6 µM. The TGI [29] was > 100 µM, the GI50 [33] was > 100 µM and the TGI [33] was > 100 µM. For the same molecule, the GI50 [36] was 28.6 µM, the TGI [36] was > 100 µM and the GI50 [38] was 5.32 µM. For the same molecule, the TGI [38] was > 100 µM, the GI50 [39] was 2.71 µM and the TGI [39] was 7.18 µM. The GI50 [10] was > 100 µM, the TGI [10] was > 100 µM and the GI50 [12] was 3.07 µM. The TGI [12] was > 100 µM, the GI50 [41] was > 100 µM and the TGI [41] was > 100 µM. The GI50 [42] was 2.71 µM, the TGI [42] was > 100 µM and the GI50 [45] was 4.72 µM. The TGI [45] was > 100 µM, the GI50 [46] was > 100 µM and the TGI [46] was > 100 µM. For the same molecule, the GI50 [51] was 3.64 µM and the TGI [51] was > 100 µM.

For `O=C(Nc1nc(-c2ccc(Cl)cc2)cs1)c1cc(O)c(O)c(O)c1`, the GI50 [23] was 150 µM, the TGI [23] was > 5000 µM and the GI50 [1] was 303 µM. The TGI [1] was > 5000 µM, the GI50 [2] was 927 µM and the TGI [2] was 3480 µM. For the same molecule, the GI50 [25] was 130 µM, the TGI [25] was 840 µM and the GI50 [26] was 21.4 µM. The TGI [26] was 138 µM, the GI50 [27] was 197 µM and the TGI [27] was 1680 µM. It also gave a GI50 [28] of 252 µM, a TGI [28] of 1870 µM and a GI50 [29] of 146 µM. It also gave a TGI [29] of 1400 µM, a GI50 [3] of 173 µM and a TGI [3] of 843 µM. For the same molecule, the GI50 [30] was 50.6 µM, the TGI [30] was 569 µM and the GI50 [55] was 195 µM. For the same molecule, the TGI [55] was 922 µM, the GI50 [4] was 278 µM and the TGI [4] was 2490 µM. For the same molecule, the GI50 [5] was 584 µM, the TGI [5] was 1810 µM and the GI50 [31] was 150 µM. For the same molecule, the TGI [31] was > 5000 µM, the GI50 [32] was 244 µM and the TGI [32] was 4610 µM. For the same molecule, the GI50 [33] was 915 µM, the TGI [33] was > 5000 µM and the GI50 [34] was 181 µM. It also gave a TGI [34] of 964 µM, a GI50 [6] of 572 µM and a TGI [6] of 2250 µM. The GI50 [35] was 168 µM, the TGI [35] was > 5000 µM and the GI50 [36] was 218 µM. It also gave a TGI [36] of 1020 µM, a GI50 [37] of 292 µM and a TGI [37] of 3030 µM. The GI50 [7] was 183 µM, the TGI [7] was > 5000 µM and the GI50 [38] was 479 µM. For the same molecule, the TGI [38] was > 5000 µM, the GI50 [8] was 266 µM and the TGI [8] was 2980 µM. The GI50 [9] was 245 µM, the TGI [9] was 1080 µM and the GI50 [39] was 255 µM. For the same molecule, the TGI [39] was 1880 µM, the GI50 [40] was 207 µM and the TGI [40] was 1470 µM. For the same molecule, the GI50 [10] was 141 µM, the TGI [10] was 3150 µM and the GI50 [11] was 247 µM. The TGI [11] was 1840 µM, the GI50 [12] was 142 µM and the TGI [12] was 2490 µM. The GI50 [13] was 544 µM, the TGI [13] was 3280 µM and the GI50 [14] was 176 µM. For the same molecule, the TGI [14] was 907 µM, the GI50 [15] was 276 µM and the TGI [15] was > 5000 µM. It also gave a GI50 [41] of 183 µM, a TGI [41] of 939 µM and a GI50 [16] of 538 µM. For the same molecule, the TGI [16] was 3420 µM, the GI50 [42] was 96.3 µM and the TGI [42] was 1060 µM. The GI50 [43] was 79 µM, the TGI [43] was 760 µM and the GI50 [44] was 194 µM. For the same molecule, the TGI [44] was 881 µM, the GI50 [45] was 162 µM and the TGI [45] was 3990 µM. It also gave a GI50 [46] of 166 µM, a TGI [46] of 923 µM and a GI50 [17] of 663 µM. The TGI [17] was 2570 µM, the GI50 [47] was 349 µM and the TGI [47] was > 5000 µM. For the same molecule, the GI50 [18] was 174 µM, the TGI [18] was 810 µM and the GI50 [56] was 115 µM. For the same molecule, the TGI [56] was 1050 µM, the GI50 [49] was 700 µM and the TGI [49] was 2080 µM. For the same molecule, the GI50 [19] was 113 µM, the TGI [19] was 1140 µM and the GI50 [57] was 125 µM. For the same molecule, the TGI [57] was 671 µM, the GI50 [20] was 167 µM and the TGI [20] was > 5000 µM. For the same molecule, the GI50 [21] was 172 µM, the TGI [21] was 3780 µM and the GI50 [51] was 156 µM. The TGI [51] was 1200 µM, the GI50 [52] was 144 µM and the TGI [52] was > 5000 µM. For the same molecule, the GI50 [53] was 266 µM, the TGI [53] was 2980 µM and the GI50 [22] was 158 µM. For the same molecule, the TGI [22] was 958 µM, the GI50 [54] was 315 µM and the TGI [54] was 1460 µM. The GI50 [58] was 115 µM and the TGI [58] was 660 µM.

Source: PubChem BioAssay (NCI)
